Test results from patent US9932314B2, “Pyrazole compounds and their use as T-type calcium channel blockers” (IDORSIA PHARMACEUTICALS LTD, priority 2015, dated 2018).

target: T1, voltage-dependent T-type calcium channel subunit alpha-1G (Cav3.2) (Homo sapiens, UniProt O95180); assay: FLIPR calcium flux assay, HEK293 cells recombinantly expressing Cav3.2; format: cell-based; settings: Cav3.2-channel, Fluo-4-AM, 3 min incubation, stimulation with 10 mM CaCl2
T1 construct: expressed in transfected cells; host or cells: HEK293
Method in brief: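 HEK293 cells stably expressing human Cav3.2 were loaded with Fluo-4-AM. Compounds diluted in TEAC buffer (pH 7.2) were preincubated for 3 min, then Ca2+ entry was triggered by 10 mM final CaCl2. Inhibition curves were fitted sigmoidally to the area under the fluorescence trace.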

T1 sequence (O95180 whole entry): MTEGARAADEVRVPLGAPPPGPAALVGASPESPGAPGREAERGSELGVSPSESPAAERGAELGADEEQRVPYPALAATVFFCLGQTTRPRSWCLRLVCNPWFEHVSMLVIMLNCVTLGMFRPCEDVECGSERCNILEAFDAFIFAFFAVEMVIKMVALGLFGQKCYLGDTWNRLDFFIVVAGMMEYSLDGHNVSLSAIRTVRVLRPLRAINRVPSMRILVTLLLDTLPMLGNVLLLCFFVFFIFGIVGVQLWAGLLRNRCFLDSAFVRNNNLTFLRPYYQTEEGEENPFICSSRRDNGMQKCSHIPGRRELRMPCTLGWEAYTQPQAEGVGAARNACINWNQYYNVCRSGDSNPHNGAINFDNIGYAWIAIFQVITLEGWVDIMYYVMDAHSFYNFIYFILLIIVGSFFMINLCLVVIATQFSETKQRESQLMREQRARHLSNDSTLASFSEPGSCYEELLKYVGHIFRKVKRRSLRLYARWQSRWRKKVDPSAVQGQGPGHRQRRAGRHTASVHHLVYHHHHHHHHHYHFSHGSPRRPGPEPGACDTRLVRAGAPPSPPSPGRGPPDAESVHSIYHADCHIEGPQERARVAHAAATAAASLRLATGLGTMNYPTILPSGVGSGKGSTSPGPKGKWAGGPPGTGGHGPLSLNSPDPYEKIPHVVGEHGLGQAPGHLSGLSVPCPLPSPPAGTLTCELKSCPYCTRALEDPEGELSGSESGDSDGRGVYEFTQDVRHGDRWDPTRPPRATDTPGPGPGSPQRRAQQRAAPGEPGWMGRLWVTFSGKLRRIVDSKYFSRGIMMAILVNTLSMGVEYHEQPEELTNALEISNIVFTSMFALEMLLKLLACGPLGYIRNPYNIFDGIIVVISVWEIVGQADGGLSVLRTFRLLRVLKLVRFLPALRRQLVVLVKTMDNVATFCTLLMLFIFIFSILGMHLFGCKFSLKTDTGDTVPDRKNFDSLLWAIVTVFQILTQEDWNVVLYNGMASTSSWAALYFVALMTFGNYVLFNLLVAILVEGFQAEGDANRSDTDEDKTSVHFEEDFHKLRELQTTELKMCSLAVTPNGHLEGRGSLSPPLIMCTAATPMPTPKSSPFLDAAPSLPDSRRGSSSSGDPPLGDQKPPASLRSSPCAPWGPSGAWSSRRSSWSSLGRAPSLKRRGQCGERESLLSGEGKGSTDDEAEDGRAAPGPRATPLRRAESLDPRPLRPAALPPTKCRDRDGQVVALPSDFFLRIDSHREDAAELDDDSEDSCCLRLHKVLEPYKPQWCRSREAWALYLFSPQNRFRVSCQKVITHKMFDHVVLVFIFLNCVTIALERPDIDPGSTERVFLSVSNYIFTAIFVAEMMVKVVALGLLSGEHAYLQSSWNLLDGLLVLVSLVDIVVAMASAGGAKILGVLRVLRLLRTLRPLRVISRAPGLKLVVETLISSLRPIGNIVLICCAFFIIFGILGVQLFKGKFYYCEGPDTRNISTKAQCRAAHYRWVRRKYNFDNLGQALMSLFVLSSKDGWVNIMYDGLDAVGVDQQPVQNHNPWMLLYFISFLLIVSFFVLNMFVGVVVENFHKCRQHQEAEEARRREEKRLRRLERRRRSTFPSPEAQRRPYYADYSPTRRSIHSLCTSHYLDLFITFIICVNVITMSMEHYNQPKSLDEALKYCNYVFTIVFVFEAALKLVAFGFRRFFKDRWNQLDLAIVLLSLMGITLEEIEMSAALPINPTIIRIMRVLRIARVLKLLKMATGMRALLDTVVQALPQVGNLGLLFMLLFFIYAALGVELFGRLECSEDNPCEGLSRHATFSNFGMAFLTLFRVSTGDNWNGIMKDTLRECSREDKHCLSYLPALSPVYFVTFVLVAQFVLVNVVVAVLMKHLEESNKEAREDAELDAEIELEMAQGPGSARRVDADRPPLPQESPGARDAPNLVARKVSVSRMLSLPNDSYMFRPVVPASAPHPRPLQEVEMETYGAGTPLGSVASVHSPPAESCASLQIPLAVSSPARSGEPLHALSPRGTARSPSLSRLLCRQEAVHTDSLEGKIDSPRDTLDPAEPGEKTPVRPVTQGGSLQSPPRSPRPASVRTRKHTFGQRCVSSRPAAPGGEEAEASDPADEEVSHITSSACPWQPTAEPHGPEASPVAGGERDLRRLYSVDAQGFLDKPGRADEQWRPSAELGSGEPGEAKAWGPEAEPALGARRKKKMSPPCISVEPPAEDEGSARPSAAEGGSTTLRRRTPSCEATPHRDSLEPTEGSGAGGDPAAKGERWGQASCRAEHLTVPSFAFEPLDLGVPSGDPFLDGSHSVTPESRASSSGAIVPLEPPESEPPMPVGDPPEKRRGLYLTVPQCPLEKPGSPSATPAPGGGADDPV

| IC50 [nM] | Compound |
| --- | --- |
| 925 | COc1ccc(Cn2ccc(NC(=O)Cc3ccc(N4CCC4)nc3)n2)cc1 [Example 101, 2-(6-Azetidin-1-yl-pyridin-3-yl)-N-[1-(4-methoxy-benzyl)-1H-pyrazol-3-yl]-acetamide] |
| 20 | Cc1cn(C)c2ccc(CC(=O)Nc3ccn(Cc4cc(F)c(C#N)c(F)c4)n3)cc12 [Example 358, N-[1-(4-Cyano-3,5-difluoro-benzyl)-1H-pyrazol-3-yl]-2-(1,3-dimethyl-1H-indol-5-yl)-acetamide] |
| 319 | CCN(C)c1ccc(CC(=O)Nc2ccn(Cc3ccc(OC)cc3)n2)cn1 [Example 174, 2-[6-(Ethyl-methyl-amino)-pyridin-3-yl]-N-[1-(4-methoxy-benzyl)-1H-pyrazol-3-yl]-acetamide] |
| 13 | CC(C)Cc1ccc(CC(=O)Nc2ccn(Cc3ccc(F)cc3)n2)cc1 [Example 147, N-[1-(4-Fluoro-benzyl)-1H-pyrazol-3-yl]-2-(4-isobutyl-phenyl)-acetamide] |
| 349 | Cc1ccc(Cn2ccc(NC(=O)Cc3ccc(N4CCCC4)nc3)n2)nc1C#N [Example 373, N-[1-(6-Cyano-5-methyl-pyridin-2-ylmethyl)-1H-pyrazol-3-yl]-2-(6-pyrrolidin-1-yl-pyridin-3-yl)-acetamide] |
| 23 | N#Cc1ccc(Cn2ccc(NC(=O)Cc3ccc(OCC4CC(F)(F)C4)cc3)n2)cc1F [Example 289, N-[1-(4-Cyano-3-fluoro-benzyl)-1H-pyrazol-3-yl]-2-[4-(3,3-difluoro-cyclobutylmethoxy)-phenyl]-acetamide] |
| 1270 | CCN(CC)c1ccc(CC(=O)Nc2ccn(Cc3ccc(C#N)cn3)n2)cn1 [Example 123, N-[1-(5-Cyano-pyridin-2-ylmethyl)-1H-pyrazol-3-yl]-2-(6-diethylamino-pyridin-3-yl)-acetamide] |
| 8.6 | Cc1cc(Cn2ccc(NC(=O)Cc3ccc(N(C)C)cc3)n2)ccc1F [Example 30, 2-(4-Dimethylamino-phenyl)-N-[1-(4-fluoro-3-methyl-benzyl)-1H-pyrazol-3-yl]-acetamide] |
| 113 | COc1ccc(Cn2ccc(NC(=O)Cc3ccc(N(C)C4CC4)nc3)n2)cc1 [Example 168, 2-[6-(Cyclopropyl(methyl)amino)-pyridin-3-yl]-N-[1-(4-methoxy-benzyl)-1H-pyrazol-3-yl]-acetamide] |
| 12 | CC(C)c1ccc(CC(=O)Nc2ccn(Cc3ccc(F)c(C#N)c3)n2)cc1 [Example 282, N-[1-(3-Cyano-4-fluoro-benzyl)-1H-pyrazol-3-yl]-2-(4-isopropyl-phenyl)-acetamide] |
| 29 | N#Cc1ccc(Cn2ccc(NC(=O)Cc3ccc(C4CC(F)(F)C4)cc3)n2)nc1 [Example 305, N-[1-(5-Cyano-pyridin-2-ylmethyl)-1H-pyrazol-3-yl]-2-[4-(3,3-difluoro-cyclobutyl)-phenyl]-acetamide] |
